The values below come from patent US20050277586A1, “Peptide chemically modified with polyethylene glycol” (priority 2002, published 2005).

No end group written: not given here.

The nature of data set [1]: Toxicity of the peptide, tail vein administration. The class given is in vivo. Conditions: female BALB/c mouse, 5 mg/kg. The method, then: The peptide used in the present invention was administered to a mouse from its tail vein to thereby evaluate its toxicity. The mouse used was a female BALB/c mouse of 5 week old, and the peptide was used at a dose of 5 mg/kg.
Data set [2] relates to Lewis lung carcinoma cell. Briefly: In vivo HSV-tk gene introduction plus GCV, survival of mice with Lewis lung carcinoma in abdominal cavity. Set-up: species or system mouse. Conditions: GCV only, 30 mg/kg/day. The method, then: To be more specific, 1×10^5 Lewis lung carcinoma cells were transplanted in the abdominal cavity of a C57BL/6 mouse (purchased from Charles River JAPAN), and a mixture of 10 μg of the HSV-tk-expressing plasmid prepared in Example 7 and 40 nmol of the peptide of SEQ ID NO: 16 prepared in Example 1 was administered in the abdominal cavity after the cell transplantation. The mouse was also administered with GCV at a dose of 30 mg/kg/day from 1st to 8th day after the transplantation.

In the next data set the test system is Vero cell. Briefly: Storage stability of the complex with nucleic acid (gene-introducing activity after 4° C., 1 week). To be noted: complex with luciferase plasmid stored at 4° C. for 1 week. The class given is cell-based, monkey. The method, then:
Luciferase-expressing plasmid was introduced in Vero cell in accordance with the procedure described in Example 9 by using the opti-MEM prepared to have a concentration of the luciferase-expressing plasmid prepared in Example 7 of 2 μg/mL and a concentration of the peptide of SEQ ID NO: 4 prepared in Example 1 of 5 μM to thereby measure the luciferase activity. The opti-MEM containing plasmid and peptide used were the one which had been prepared immediately before the gene introduction, and the one which had been prepared 1 week (7 days) in advance and stored at 4° C.
For the purpose of reference, gene-introducing activity of Lipofectin and LipofectAMINE 2000 (manufactured by Life Technologies Oriental), which are commercially available plasmid-introducing agents, were also evaluated by mixing these reagent with luciferase-expressing plasmid in accordance with the attached protocol, and evaluating their gene-introducing activity after storing at 4° C. for 1 week.

Data set [3] has as its system Vero cell, T24 cell, A549 cell. Briefly: Nucleic acid-introducing ability, luciferase-expressing plasmid (procedure of Example 9). The class given is cell-based. From the text: A cell line established from monkey kidney (Vero cell) and a human bladder cancer cell (T24 cell) purchased from American Type Culture Collection (ATCC) and human lung cancer cell (A549 cell) purchased from Dainippon Pharmaceutical were inoculated on a 24 well culture plate (manufactured by NALGEN NUNC) at 1×10^5 cells/well. Vero cell and A549 cell were cultivated in DMEM (manufactured by Life Technologies Oriental) supplemented with 10% fetal bovine serum (hereinafter referred to as FBS, manufactured by NICHIREI), and T24 cell was cultivated in McCoy's 5a (manufactured by Life Technologies Oriental) supplemented with 10% FBS in 5% CO2 atmosphere at 37° C. for 24 hours. After removing the medium, opti-MEM (manufactured by Life Technologies Oriental) prepared to have the concentration of the luciferase-expressing plasmid prepared in Example 7 of 1 μg/mL and the concentration of the peptide prepared in Example 1 of 1.25, 2.5, or 5 μM was added, and the cells were cultivated for 5 hours. Next, in the case of Vero cell and A549 cell, the culture medium was replaced with DMEM supplemented with 10% FBS, and in the case of T24 cell, the medium was replaced with McCoy's 5a supplemented with 10% FBS, and cultivation was continued in 5% CO2 atmosphere and at 37° C. for another 24 hours. The luciferase activity expressed in the cell was then measured by the method instructed in luciferase assay system (manufactured by Promega). To be more specific, the cells were washed with phosphate-buffered saline (hereinafter referred to as PBS, manufactured by SIGMA), and the cells were lyzed with Passive Lysis Buffer attached to the kit.
20 μL of this cell lysate and 100 μL of the Luciferase Assay Reagent II attached to the kit was added to a fluorescence-measuring plate (Microlite™ 1 plate, manufactured by Dynatech), and after mixing, fluorescence was measured for 1 second by using a multilabel counter (ARVO™ SY1420 MULTILABEL COUNTER, manufactured by Wallac Beltold.
Concentration of the protein in the cell lysate was measured by mixing 8 μL of the cell lysate and 200 μL of the protein assay solution (manufactured by Biorad) with 792 μL of ultrapure water in a disposable cuvette (UV fluorescent cuvette A204X, manufactured by Funakoshi), allowing the mixture to stand for 5 minutes at room temperature, and measuring the absorption at 595 nm with a spectrophotometer (DU640, manufactured by Beckman). Bovine serum albumin (BSA) was used for the standard protein. By using the thus obtained results, count per 1 second per 1 mg of protein of the cell lysate was calculated to thereby use the count as the luciferase activity, and the highest count in the three conditions of different peptide concentration was designated the gene-introducing ability of the peptide.

A short description of data set [4]: Measurement of CD spectrum with and without SDS. In kind it is physicochemical. Conditions: 10 mM phosphate buffer pH 7, 50 mM NaCl, 35° C.; for α-helix structure in CD spectroscopy in the presence of SDS: 5 mM SDS. The method, then:
The peptide dissolved in 10 mM phosphate buffer (pH=7) containing 50 mM NaCl was evaluated for its CD spectrum in the presence and in the absence of 5 mM SDS by using a circular dichroism spectrophotometer (J-500A, manufactured by JASCO). The cell length was 1 mm. The measurement was conducted at 35° C. for 6 times in total.

Data set [5] is described as follows: Affinity for phosphatidyl serine by surface plasmon resonance (Biacore 2000). To be noted: in the presence of 0.1 mg/mL BSA. In kind it is binding. The method, then: The specific affinity of the peptide for phosphatidyl serine was evaluated by means of surface plasmon resonance (SPR) using Biacore 2000 (manufactured by Biacore). To be more specific, phosphatidyl choline was immobilized on flow cell 1, and 50% of phosphatidyl serine and 50% of phosphatidyl choline were immobilized on flow cell 2 of HPA chip (manufactured by Biacore), and ability of the peptide to bind to the phospholipid was evaluated in the presence of 0.1 mg/mL BSA to thereby evaluate the affinity.
(Surface plasmon resonance follows binding to a sensor surface in real time, without labels.)

As to “LARLLARLLARLLRALLRALLRAL [SEQ ID NO: 27]”, the “Toxicity after tail vein administration” value in data set [1] is on record as “died immediately after the administration”.

For `Nc1nc(O)c2ncn(COC(CO)CO)c2n1` [GCV, ganciclovir], the Average survival period in data set [2] is 14 days.

Turning to “SEQ ID NO: 4: SEQ ID NO: 1 with one or two locations in the 18 amino acid sequence substituted (TRYLRIHPRSWLHQIALRLRYLRIHPRSWLHQIALRS)”, the “Gene-introducing activity after storage relative to freshly prepared complex” value in the data set on Vero cell is recorded as “substantially equivalent”. Moreover, the Nucleic acid-introducing ability in data set [3] (luciferase plasmid 1 μg/mL, highest count of peptide 1.25, 2.5 or 5 μM, cell line not stated) is 4+ (10,000,000 to less than 100,000,000). For the same molecule, the “α-helix structure in CD spectroscopy in the presence of SDS” value in data set [4] is “are in α-helix structure in the presence of SDS”. In addition, the “α-helix structure in CD spectroscopy in the absence of SDS” value in data set [4] (no SDS) is “do not take α-helix structure in an aqueous solution solely containing an inorganic salt”.

On to “SEQ ID NO: 25: same amino acid composition as SEQ ID NO: 1 but with an utterly random amino acid sequence (TIRYRPSHQIRLRAVLHLWIRYRPSHQIRLRAVLHWS) [reference compound]”, for which the “Binding to flow cell 2 (50% phosphatidyl serine, 50% phosphatidyl choline) and flow cell 1 (phosphatidyl choline)” value in data set [5] is reported as “showed no binding”. The “Ability of introducing the nucleic acid into a cell” value in data set [3] (procedure of Example 9) is recorded as “neither the nucleic acid-introducing ability”. Further, in data set [4], the “α-helix structure in CD spectroscopy in the presence of SDS” value was “no α-helix structure is found even in the presence of SDS”.
